The values that follow come from patent US7638639B2, “Substituted pyrrolidine and related compounds” (Theravance, Inc., priority 2003, dated 2009).

One experiment deals with T1, hM2 receptor (Homo sapiens, UniProt P08172).
T1 construct: expressed in transfected cells
T1 sequence (P08172 1-466): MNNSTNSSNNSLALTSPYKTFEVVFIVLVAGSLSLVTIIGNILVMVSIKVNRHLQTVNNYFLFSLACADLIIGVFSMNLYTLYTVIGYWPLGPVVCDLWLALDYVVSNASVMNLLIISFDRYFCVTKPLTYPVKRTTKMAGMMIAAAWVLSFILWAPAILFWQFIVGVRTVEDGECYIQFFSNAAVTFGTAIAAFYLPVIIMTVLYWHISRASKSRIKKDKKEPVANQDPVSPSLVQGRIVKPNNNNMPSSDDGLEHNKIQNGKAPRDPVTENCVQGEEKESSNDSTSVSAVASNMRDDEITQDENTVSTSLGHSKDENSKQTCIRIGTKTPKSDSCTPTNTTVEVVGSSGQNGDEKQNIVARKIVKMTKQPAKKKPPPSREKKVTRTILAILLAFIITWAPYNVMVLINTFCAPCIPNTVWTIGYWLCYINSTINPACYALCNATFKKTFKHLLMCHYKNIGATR
Briefly: Blockade of agonist-mediated inhibition of cAMP accumulation. It is filed as cell-based. The settings on record: CHO-K1 cells expressing the hM2 receptor; read-out: Ki for blockade of oxotremorine-inhibition of forskolin-mediated cAMP accumulation. The protocol:
A. Blockade of Agonist-Mediated Inhibition of cAMP Accumulation
In this assay, the functional potency of a test compound was determined by measuring the ability of the test compound to block oxotremorine-inhibition of forskolin-mediated cAMP accumulation in CHO-K^1 cells expressing the hM2 receptor.
cAMP assays were performed in a radioimmunoassay format using the Flashplate Adenylyl Cyclase Activation Assay System with ^125I-cAMP (NEN SMP004B, PerkinElmer Life Sciences Inc., Boston, Mass.), according to the manufacturer's instructions.
Cells were rinsed once with dPBS and lifted with […] (0.05% trypsin/[…]) as described in the Cell Culture and Membrane Preparation section above. […] The cell pellet was then re-suspended in 10 mL dPBS, and the cells were counted with a Coulter Z1 Dual Particle Counter (Beckman Coulter, Fullerton, Calif.). […]
Reactions were incubated for 10 minutes at 37° C. and stopped by addition of 100 μL ice-cold detection buffer. Plates were sealed, incubated overnight at room temperature and counted the next morning on a PerkinElmer TopCount liquid scintillation counter (PerkinElmer Inc., Wellesley, Mass.). The amount of cAMP produced (pmol/well) was calculated based on the counts observed for the samples and cAMP standards, as described in the manufacturer's user manual. […]
On the technique in general: Cyclic AMP is a second messenger, typically raised through Gs and lowered through Gi signalling.

Experiment [1] relates to methacholine-induced decrease in mean arterial pressure. The experiment can be described thus: Methacholine-induced depressor responses in conscious guinea pigs. In kind it is in vivo. The settings on record: guinea pig, inhalation. An excerpt: Methacholine-Induced Depressor Responses in Conscious Guinea Pigs
Healthy, adult, male Sprague-Dawley guinea pigs (Harlan, Indianapolis, Ind.), weighing between 200 and 300 g were used in these studies. Under isoflurane anesthesia (to effect), animals were instrumented with common carotid artery and jugular vein catheters (PE-50 tubing). The catheters were exteriorized utilizing a subcutaneous tunnel to the subscapular area. All surgical incisions were sutured with 4-0 Ethicon Silk and the catheters locked with heparin (1000 units/mL). Each animal was administered saline (3 mL, SC) at the end of surgery as well as buprenorphine (0.05 mg/kg, IM). Animals were allowed to recover on a heating pad before being returned to their holding rooms.
Approximately 18 to 20 hours following surgery, the animals were weighed and the carotid artery catheter on each animal was connected to a transducer for recording arterial pressure. Arterial pressure and heart rate was recorded using a Biopac MP-100 Acquisition System. Animals were allowed to acclimate and stabilize for a period of 20 minutes.
Each animal was challenged with methylcholine (MCh) (0.3 mg/kg, iv) administer through the jugular venous line and the cardiovascular response was monitored for 10 minutes. […] At 1.5 and 24 h post-dosing, the animals were re-challenged with MCh (0.3 mg/kg, iv) and the hemodynamic response was determined. […]

As usually defined, the Ki is a dissociation constant, usually derived from enzyme kinetics or from competition with a known ligand. For `CNCCCCCCCCN1CC[C@@H](C(C(N)=O)(c2ccccc2)c2ccccc2)C1` [Example 1, 2-[(S)-1-(8-Methylaminooctyl)pyrrolidin-3-yl]-2,2-diphenylacetamide], at hM2 receptor, the Ki is < 5 nM. For the same compound, the “apparent lung-selectivity index (anti-depressor ID50 / bronchoprotective ID50)” value in experiment [1] is “greater than 5”.
